# Results reported in patent publication US8105798B2, “Cytoplasmic activity of retinoid X receptor and its regulation by ligands and dimerization” (The Burnham Institute, priority 2003, dated 2012).
# Entries after “also recorded” stand apart in the source; their conditions may differ.
# Legend:
# [1] = target: T1, RXRα (Homo sapiens, UniProt P19793); experiment: subcellular localization of RXRα by immunostaining / confocal microscopy; type: cell-based; settings: for nuclear export of GFP fusion with amino acids 348-398 of RXRα: HEK293T cells; for GFP-RXRα association with mitochondria (overlay with Mito-RFP) / GFP-RXRα localization: COS-7 cells, 10^-4 M, 4 hours
# T1 sequence (P19793 1-462): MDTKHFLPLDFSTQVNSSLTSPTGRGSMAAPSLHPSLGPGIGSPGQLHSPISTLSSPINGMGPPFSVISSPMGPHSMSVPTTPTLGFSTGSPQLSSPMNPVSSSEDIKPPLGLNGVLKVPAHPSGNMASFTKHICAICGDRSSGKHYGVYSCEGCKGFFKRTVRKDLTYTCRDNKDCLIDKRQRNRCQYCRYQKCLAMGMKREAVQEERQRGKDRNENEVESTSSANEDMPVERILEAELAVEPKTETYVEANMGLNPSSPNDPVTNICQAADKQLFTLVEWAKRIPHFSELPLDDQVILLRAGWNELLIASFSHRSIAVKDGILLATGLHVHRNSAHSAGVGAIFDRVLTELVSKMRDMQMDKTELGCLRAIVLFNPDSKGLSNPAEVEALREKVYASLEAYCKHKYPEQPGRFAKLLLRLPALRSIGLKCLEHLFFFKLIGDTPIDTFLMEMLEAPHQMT
# Protocol: Expression vector for Flag-RXRα was transfected into the indicated cell line. Cells were then treated with 15d-PGJ2 (5.micro.M) for 3 hr, then immunostained with anti-Flag antibody to detect RXRα Flag-RXRα was visualized by confocal microscopy.
# (§1) Expression vectors for Flag-RXRα and GFP-TR3 were transfected into PC12 cells alone or together. Cells were then treated with 15d-PGJ2 (5.micro.M) for 3 hr, then immunostained with anti-Flag antibody to detect RXRα Flag-RXRα and GFP-TR3 were visualized by confocal microscopy, and their images merged.
# Cos7 cells were transfected with GFP-RXRα and Mito-REP, and treated with or without 10^-4 M indomethacin or diclofenac for 4 hours. The distribution of GFP-RXRα and Mito-REP was visualized by confocal microscopy.
# For example, cells such as LNCaP prostate cancer cells are induced to apoptosis using agents such as the phorbol ester, TPA (12-0-tetradecanolphorbol 13-acetate, Cell Signaling Technology Cat. No.: 9905).
# For example, heat shock protein 60 (Hsp60) is a mitochondrial specific protein. […] The treated cells are then incubated with a conjugated secondary antibody and visualized using confocal microscopy. In this example, Cy-3 or FITC conjugated secondary antibodies were used for visualizing the sub-cellular localization of RXRα or Hsp60, respectively.
# A GFP-RXRα expression vector was transfected into COS-7 cells and GFP-RXRα was expressed.
# A fusion protein created by combining GFP and amino acids 348-398 of RXRα, is transfected into HEK293T cells.
# To determine the role of 15d-PGJ2 binding on the new RXR pathway, a confocal microscopy analysis was performed to determine subcellular localization of RXRα in the presence or absence of 15d-PGJ2.
# (§2) Because RXR heterodimerizes with TR3, Inventor examined the effect of 15d-PGJ2 on TR3 subcellular localization in PC12 phaeochromocytoma cells.
# To determine the mechanism of RXRα mediated apoptosis in the presence of sulindac sulfide, Inventors examined the effect of sulindac sulfide on subcellular localization of RXRα
# [2] = system: CV-1, MGC80-3, HEK293T and HCT116 cells; experiment: apoptosis determined by DAPI staining; type: cell-based; settings: for effect on sulindac sulfide-induced apoptosis: RXRα ligands given with sulindac sulfide
# Protocol: To determine the involvement of RXRα in sulindac sulfide-induced apoptosis of cancer cells, its effect on apoptosis of CV-1 cells (available from American Type Cell Culture, Manassas, Va., as accession number CCL-70) in the absence or presence of RXRα transfection was evaluated. FIG. 13a. RXR was cloned into a pGFP.C2 vector (GenBank Accession #: U19281) according to the procedure of Li et al., Science 289, 1159-1164 (2000). CV-1 cells were transfected with or without RXRα prior to treatment with sulindac sulfide (75.micro.M) for 24 hr. […] Louis, Mo., as catalogue number D9542), and the presence of nuclear fragmentation and/or chromatin condensation is an indicator of apoptosis. […] The requirement of RXRαwas also examined using RXRα siRNA SEQ ID No.: 12 approach. MGC80-3 cells, HEK293T (ATCC, accession number CCL-1573) and HCT116 (ATCC, accession number CCL-247) cell lines were transfected with RXRα siRNA or control siRNA using oligofectamine (from Invitrogen, Corp). Cell samples from each cell line were lysed and the cell extracts were prepared by immunoblotting to determine RXRα expression. Cells transfected with RXR.alpha siRNA or control siRNA were treated with sulindac sulfide (75.micro.M) for 24 hr, and apoptosis was determined by DAPI staining.
# [3] = system: TR3; experiment: subcellular localization of TR3 and RXRα/TR3 heterodimer by confocal microscopy; type: cell-based
# Protocol: as §1, with “FIG. 10 is a series of confocal microscope images of immunostained PC12 cells illustrating that binding of 15d-PGJ2 to RXRα induces translocation of RXRα homodimer/monomer or TR3/RXRα heterodimer from the nucleus to the cytoplasm. Expression” for “Expression”
# In the absence of TPA, both TR3 and RXRα reside mainly in the nucleus. […] (FIG. 2).
# as §2
# Either TR3 alone, RXRα alone or TR3 and RXRα was transfected into HEK293T cells. Cells were then treated with sulindac sulfide (75.micro.M) for 6 hr. RXR.alpha and TR3 localization was determined by immunostaining, and cells were also stained by DAPI. […] Thus, the effect of sulindac sulfide on the cytoplasmic localization of TR3 depends on RXRα expression, probably due to their heterodimerization. Thus, sulindac sulfide induces nuclear export of RXRα and RXRα/TR3 heterodimer. (FIG. 14b).
# The effect of sulindac sulfide on mitochondrial targeting of RXRα and TR3 was determined by treating H460 lung cancer cells with 75 micro.M sulindac sulfide for 6 hours and visualization of the cellular localization of these proteins by immunostaining. A two stage detection system was used having either anti-RXR or anti TR3 as a first stage (Santa Cruz Biotechnology and Abgent, respectively). In the absence of treatment, both RXRα and TR3 were found mainly in the nucleus.
# [4] = target: T2, RXRα ligand-binding domain (Homo sapiens, UniProt P19793); experiment: competition binding assay with [3H]9-cis-RA and RXRα ligand-binding domain
# T2 construct: made in house; host or cells: E. coli BL21 (pET vector, Novagen)
# T2 sequence (P19793 224-462): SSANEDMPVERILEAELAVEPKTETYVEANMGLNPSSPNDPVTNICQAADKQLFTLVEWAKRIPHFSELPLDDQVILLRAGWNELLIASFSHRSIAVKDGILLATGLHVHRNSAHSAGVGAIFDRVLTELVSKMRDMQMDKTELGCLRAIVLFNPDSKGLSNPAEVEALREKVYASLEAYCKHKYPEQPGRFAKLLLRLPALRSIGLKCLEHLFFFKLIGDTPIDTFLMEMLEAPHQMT
# Protocol: FIG. 8 is a dose response analysis illustrating that 15d-PGJ2 binds RXRα with high affinity conducted with 15d-PGJ2 in the competition binding assay. […] After separation of bound from free radioactivity by elution through Sephadex G-25 desalting columns. Bound radioactivity eluted was quantitated by liquid scientillation counting.
# Therefore, Inventor investigated the possibility that 15d-PGJ2 bound directly to RXRα […] A dose response analysis (FIG. 8) was conducted with 15d-PGJ2 in the competition binding assay.
# LBD expressed in E. coli. […] The reactions were then eluted through a Sephadex G-25 column to separate the bound label from free label and the RXRα LBD-bound label was quantitated by liquid scintillation counting.
# [5] = target: T3, TR3/RXRα heterodimer (Homo sapiens, UniProt P19793); experiment: gel shift assay (EMSA) of TR3/RXRα heterodimer binding to βRARE; type: biochemical
# T3 construct: made in house; host or cells: in vitro translation
# T3 sequence (P22736 whole entry partner, one chain of several): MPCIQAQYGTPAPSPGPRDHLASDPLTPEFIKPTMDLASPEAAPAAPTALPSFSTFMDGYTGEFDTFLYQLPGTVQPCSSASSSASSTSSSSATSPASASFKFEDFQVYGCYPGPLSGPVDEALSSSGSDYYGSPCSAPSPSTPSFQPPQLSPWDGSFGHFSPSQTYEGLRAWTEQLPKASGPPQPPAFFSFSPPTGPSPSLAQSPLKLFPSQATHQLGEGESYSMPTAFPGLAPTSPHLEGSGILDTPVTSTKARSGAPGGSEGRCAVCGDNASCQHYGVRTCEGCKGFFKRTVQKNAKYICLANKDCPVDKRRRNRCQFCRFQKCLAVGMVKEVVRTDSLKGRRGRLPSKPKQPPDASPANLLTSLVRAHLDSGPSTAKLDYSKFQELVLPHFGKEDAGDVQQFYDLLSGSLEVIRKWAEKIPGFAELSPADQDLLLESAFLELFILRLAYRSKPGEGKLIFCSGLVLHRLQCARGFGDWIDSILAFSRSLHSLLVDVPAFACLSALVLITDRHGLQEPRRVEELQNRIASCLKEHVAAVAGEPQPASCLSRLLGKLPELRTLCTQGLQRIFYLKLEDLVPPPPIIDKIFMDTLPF
# Protocol: In vitro translated RXRα and TR3 were incubated with 15d-PGJ2 (10^-5 M) for 15 min in the absence or presence of anti-TR3 or anti-RXRα antibody. Following a further incubation with ^32P-radiolabelled βRARE, the reactions were analyzed by EMSA.
# To study whether 15d-PGJ2 acted on the TR3/RXRα heterodimer to inhibit the heterodimer activity, Inventor investigated whether 15d-PGJ2 affected binding of the TR3/RXRα heterodimer to the beta.RARE by gel shift assay.
# RXRα and TR3 proteins are incubated in the absence or presence of a test compound. Following incubation, the mixture is incubated with ^23P-labeled βretinoic acid response element (βRARE), and the binding of the RXRα/TR3 heterodimer is analyzed by the gel-shift assay. […] The enhancement of the heterodimer binding by a compound will indicate that the compound retains the RXRα/TR3 heterodimer in the nucleus and likely induces transcriptional activity of the heterodimer through its induction of RXRα/TR3 heterodimerization at their LBD dimerization interfaces.
# [6] = target: T4, RXRα/IKK interaction (Homo sapiens, UniProt P19793); experiment: co-immunoprecipitation assay of RXRα with IKK; type: cell-based; settings: HEK293T cells, HA-IKKγ and Flag-RXRα; BI419 10^-6 M, 15d-PGJ2 5 μM, sulindac sulfide 75 μM, 6 hr
# T4 construct: expressed in transfected cells; host or cells: HEK293T, pcDNA3 expression vectors
# T4 sequence (Q9Y6K9 whole entry partner, one chain of several): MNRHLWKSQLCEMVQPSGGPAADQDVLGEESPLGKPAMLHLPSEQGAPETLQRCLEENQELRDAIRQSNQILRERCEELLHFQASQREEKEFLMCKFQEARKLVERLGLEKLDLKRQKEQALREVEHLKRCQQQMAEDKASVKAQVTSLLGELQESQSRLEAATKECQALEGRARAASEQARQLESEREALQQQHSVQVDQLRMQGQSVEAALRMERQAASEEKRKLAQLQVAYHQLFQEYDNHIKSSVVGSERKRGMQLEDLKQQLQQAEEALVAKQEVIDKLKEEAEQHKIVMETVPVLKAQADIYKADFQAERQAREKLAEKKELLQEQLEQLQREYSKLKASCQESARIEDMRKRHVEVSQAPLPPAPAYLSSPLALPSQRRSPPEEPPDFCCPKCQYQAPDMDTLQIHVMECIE
# T4 sequence (O14920 whole entry partner, one chain of several): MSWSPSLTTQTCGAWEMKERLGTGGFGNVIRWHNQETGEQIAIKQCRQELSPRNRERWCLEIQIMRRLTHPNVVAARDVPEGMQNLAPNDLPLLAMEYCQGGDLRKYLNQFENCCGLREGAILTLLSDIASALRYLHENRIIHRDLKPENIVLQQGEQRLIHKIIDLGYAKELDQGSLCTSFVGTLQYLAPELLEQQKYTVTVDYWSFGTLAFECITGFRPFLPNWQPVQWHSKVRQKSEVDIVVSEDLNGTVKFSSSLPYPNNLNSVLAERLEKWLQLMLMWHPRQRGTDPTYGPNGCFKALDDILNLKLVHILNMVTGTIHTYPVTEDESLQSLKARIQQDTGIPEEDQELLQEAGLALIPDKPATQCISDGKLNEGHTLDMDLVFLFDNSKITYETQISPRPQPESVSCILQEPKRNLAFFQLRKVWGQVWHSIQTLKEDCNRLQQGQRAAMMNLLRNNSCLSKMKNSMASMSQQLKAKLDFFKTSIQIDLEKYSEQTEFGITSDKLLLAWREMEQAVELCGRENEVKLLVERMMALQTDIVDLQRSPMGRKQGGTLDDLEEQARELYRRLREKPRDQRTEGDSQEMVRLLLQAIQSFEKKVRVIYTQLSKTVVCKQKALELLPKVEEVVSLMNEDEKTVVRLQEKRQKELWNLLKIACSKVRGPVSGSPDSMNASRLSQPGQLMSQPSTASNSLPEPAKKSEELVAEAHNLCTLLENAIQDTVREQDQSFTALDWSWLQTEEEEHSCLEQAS
# Description: IKK is composed of three subunits: IKKα and IKKβ, the catalytic subunits, and IKKγ, a regulatory subunit. IKK activation is required for NF-kB activation through its phosphorylation and degradation of IkB in response to proinflammatory stimuli. In addition, IKK also regulates cellular processes in a NF-kB-independent manner. We examined whether sulindac sulfide-induced cytoplasmic RXRα could interact with IKK. The indicated expression vector (pcDNA3 from Invitrogen, Corp) was transfected into HEK293T cells alone or together. After transfection, cells were treated with sulindac sulfide (75.micro.M) for 6 hr, and the interaction of RXRα and IKKβ was analyzed by co-immunoprecipitation assay. […] (FIG. 17a). The interaction was also illustrated by their cytoplasmic co-localization in cells treated with sulindac sulfide. (FIG. 17b). […] In this example, H460 cells were treated with or without sulindac sulfide (75.micro.M) for 6 hr, and cells were stained for RXRα and IKKβ (FIG. 17c). […] HA-IKKγ and Flag-RXRα expression vectors were transfected into HEK293T cells alone or together. After transfection, cells were treated with a new retinoid (BI419 (10^-6 M), 15d-PGJ2 (5.micro.M), or sulindac sulfide (75.micro.M) for 6 hr. The interaction of RXRα and IKKγ was studied by co-immunoprecipitation assay.
# [7] = system: RARβ expression; experiment: RARβ protein expression by Western analysis in cancer cells; type: cell-based
# Protocol: The indicated cancer cells were treated for 24 h with or without trans-RA (10^-6 M), or 15d-PGJ2 (5.micro.M) or their combination. RARβ protein expression was determined by Western analysis.
# The effect of sulindac sulfide on RXR transactivation was investigated for its effect of RARβ induction by all-trans-retinoic acid (tRA), which activates the RA response element (βRARE) in the RARβ promoter through an RAR/RXR heterodimer. […] The βRARE could be also activated by an RXR/PPAR heterodimer. […] Cells were treated for 24 hr with or without with trans-RA (10^-6 M), or SR11237 (10^-6 M), ciglitazone (10.micro.M), sulindac sulfide (100.micro.M) or the indicated combinations. RARβ protein expression was determined by Western analysis.
compound,measurement,setting,value
CCC(=C/[C@H](C)C/C=C/C(C)=C/[C@@H](C)C(=O)[C@@H](C)[C@H](O)[C@@H](C)C/C(C)=C/C(=O)O)/C=C/[C@@H]1OC(=O)C=C[C@@H]1C [leptomycin-B],nuclear export of GFP fusion with amino acids 348-398 of RXRα,[1],inhibited
CC1=C(/C=C/C(C)=C\C=C\C(C)=C\C(=O)O)C(C)(C)CCC1 [9-cis-RA],effect on sulindac sulfide-induced apoptosis,[2],inhibitory effect
"CCCCCCCCCCCCCC(=O)O[C@@H]1[C@@H](C)[C@@]2(O)[C@@H](C=C(CO)C[C@]3(O)C(=O)C(C)=C[C@@H]23)[C@H]2C(C)(C)[C@]12OC(C)=O [TPA, 12-0-tetradecanolphorbol 13-acetate]",nuclear export of GFP fusion with amino acids 348-398 of RXRα,[1],causes the fusion protein to export from the nucleus
same,RXRα association with mitochondria (overlay with Hsp60),[1]; LNCaP cells treated with TPA,associates with mitochondria
same,RXRα localization,"[1]; LNCaP prostate cancer cells, endogenous RXRα, TPA treatment",found in the cytoplasm
same,TR3 and RXRα localization,[3]; LNCaP cells treated with TPA,co-localize to the cytoplasm
CC1=C(CC(=O)O)c2cc(F)ccc2/C1=C\c1ccc([S+](C)[O-])cc1 (stereo not drawn) [sulindac],IC50,[4],~100 µM
same,"apoptosis, cells without RXRα transfection","[2]; CV-1 cells, 75 μM, 24 hr, DAPI staining",little inducing effect
"CCCCC/C=C/C=C1/C(=O)C=C[C@@H]1C/C=C\CCCC(=O)O [15d-PGJ2, 15-Deoxy-.delta^12,14-prostaglandin J2]",transfected Flag-RXRα localization,"[1]; H460 lung cancer or SY5Y neuroblastoma cells, 5 μM, 3 hr",significant amount of RXRα was found in the cytoplasm
same,Flag-RXRα localization,"[1]; PC12 cells, 5 μM, 3 hr",migrated from the nucleus to the cytoplasm
same,RXRα nuclear export,[1]; no conditions given,induce RXRα nuclear export
same,"GFP-TR3 localization, cotransfected with Flag-RXRα","[3]; PC12 cells, 5 μM, 3 hr",found in the cytoplasm
same,"GFP-TR3 migration to the cytoplasm, TR3 transfected alone","[3]; PC12 cells, 5 μM, 3 hr",did not
same,binding of TR3/RXRα heterodimer to βRARE,"[5]; 10^-5 M, 15 min, in vitro translated RXRα and TR3, EMSA",completely abolished
same,"binding of RXRα/TR3 heterodimer to DNA (βRARE), as control in gel-shift screening","[5]; stated for positive/negative control, no concentration",abolishes the heterodimer binding
same,interaction of RXRα with IKKγ,[6],further promoted
same,Ki,"[4]; read-out: Ki, displacement of [3H]9-cis-RA binding to the RXR ligand-binding domain, 10 nM [3H]9-cis-RA, bacterially purified RXRα LBD",1.8 µM
same,induction of RARβ expression by trans-RA,"[7]; Calu-6 lung and ZR75-1 breast cancer cells, 15d-PGJ2 5 μM, trans-RA 10^-6 M, 24 h",potently inhibited
same,RARβ expression in combination with RXR ligands,[7]; used together with RXR ligands,failed to induce
O=C(O)Cc1ccccc1Nc1c(Cl)cccc1Cl [diclofenac],GFP-RXRα association with mitochondria (overlay with Mito-RFP),[1],associated with mitochondria
same,GFP-RXRα localization,[1],capable of inducing the migration; also recorded: found in the cytoplasm
COc1ccc2c(c1)c(CC(=O)O)c(C)n2C(=O)c1ccc(Cl)cc1 [indomethacin],GFP-RXRα association with mitochondria (overlay with Mito-RFP),[1],associated with mitochondria
same,GFP-RXRα localization,[1],capable of inducing the migration; also recorded: found in the cytoplasm
CC1(C)CCC(C)(C)c2cc(C3(c4ccc(C(=O)O)cc4)OCCO3)ccc21 [SR11237],effect on sulindac sulfide-induced apoptosis,[2],inhibitory effect
